Here are results for two molecules from PMC5137160, “Optical imaging of MMP-12 active form in inflammation and aneurysm” (Scientific Reports, 2016).

One data set concerns the target hMMP-12. The data set is described as follows: MMP inhibition assay (Ki). It counts as biochemical, human. The method, then:
(§1) Human MMP-8, -9, -12 and -13 were produced in the laboratory. Other MMPs were purchased from R&D Systems (Minneapolis, MN). MMP inhibition assays were carried out as previously described. Pro-MMPs were pre-activated by p-aminophenylmercuric acetate following the method described by R&D Systems. Titration experiments were carried out to determine active enzyme concentration for each MMP prior to the assay. For each probe, the percentage of inhibition was determined from five different concentrations in triplicates, chosen to reach a range of 20–80% inhibition. Ki values were determined using the method proposed by Horovitz and Leviski[45].

The target of a further data set is T1, hMMP-3 (Homo sapiens, UniProt P08254).
T1 construct: purchased R&D Systems (Minneapolis, MN)
T1 sequence (P08254 100-477): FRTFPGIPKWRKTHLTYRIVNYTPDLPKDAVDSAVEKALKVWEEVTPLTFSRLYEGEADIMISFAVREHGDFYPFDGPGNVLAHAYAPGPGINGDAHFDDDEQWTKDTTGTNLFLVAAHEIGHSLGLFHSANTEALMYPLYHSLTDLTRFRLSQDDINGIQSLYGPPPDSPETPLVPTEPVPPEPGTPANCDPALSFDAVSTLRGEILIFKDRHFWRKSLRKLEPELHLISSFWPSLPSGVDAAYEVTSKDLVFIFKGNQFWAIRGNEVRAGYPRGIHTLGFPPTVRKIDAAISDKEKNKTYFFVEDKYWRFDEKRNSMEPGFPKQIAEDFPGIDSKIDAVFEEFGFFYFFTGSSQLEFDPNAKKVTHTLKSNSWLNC
Briefly: MMP inhibition assay (Ki). It counts as biochemical. The method, then: as §1

The target of the next data set is T2, hMMP-7 (Homo sapiens, UniProt P09237).
T2 construct: purchased R&D Systems (Minneapolis, MN)
T2 sequence (P09237 95-267): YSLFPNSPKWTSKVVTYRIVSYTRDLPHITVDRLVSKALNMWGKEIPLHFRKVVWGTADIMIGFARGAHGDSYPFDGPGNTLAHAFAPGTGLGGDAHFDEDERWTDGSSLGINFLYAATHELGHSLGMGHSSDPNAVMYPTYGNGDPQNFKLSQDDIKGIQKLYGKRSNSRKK
Briefly: MMP inhibition assay (Ki). It is filed as biochemical. The method, then: as §1

A further data set addresses T3, hMMP-2 (Homo sapiens, UniProt P08253).
T3 construct: purchased R&D Systems (Minneapolis, MN)
T3 sequence (P08253 110-660): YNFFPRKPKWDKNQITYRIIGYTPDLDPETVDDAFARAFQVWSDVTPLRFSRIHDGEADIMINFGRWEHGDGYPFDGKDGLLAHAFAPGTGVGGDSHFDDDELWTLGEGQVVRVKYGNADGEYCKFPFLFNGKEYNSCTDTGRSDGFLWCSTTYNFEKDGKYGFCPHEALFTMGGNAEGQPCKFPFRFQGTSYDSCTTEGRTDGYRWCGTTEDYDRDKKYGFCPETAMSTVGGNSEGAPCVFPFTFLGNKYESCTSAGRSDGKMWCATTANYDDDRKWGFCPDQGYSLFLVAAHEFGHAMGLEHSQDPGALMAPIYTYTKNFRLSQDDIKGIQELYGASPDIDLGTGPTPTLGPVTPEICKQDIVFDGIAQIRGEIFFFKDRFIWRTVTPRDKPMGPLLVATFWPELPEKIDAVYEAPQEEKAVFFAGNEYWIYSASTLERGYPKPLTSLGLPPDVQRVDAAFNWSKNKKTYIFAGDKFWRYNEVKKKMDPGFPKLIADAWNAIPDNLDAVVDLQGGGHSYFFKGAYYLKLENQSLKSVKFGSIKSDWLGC
Briefly: MMP inhibition assay (Ki). It counts as biochemical. The method, then:
as §1

In another data set the target is T4, hMMP-8 (Homo sapiens, UniProt P22894).
T4 construct: made in house
T4 sequence (P22894 101-467): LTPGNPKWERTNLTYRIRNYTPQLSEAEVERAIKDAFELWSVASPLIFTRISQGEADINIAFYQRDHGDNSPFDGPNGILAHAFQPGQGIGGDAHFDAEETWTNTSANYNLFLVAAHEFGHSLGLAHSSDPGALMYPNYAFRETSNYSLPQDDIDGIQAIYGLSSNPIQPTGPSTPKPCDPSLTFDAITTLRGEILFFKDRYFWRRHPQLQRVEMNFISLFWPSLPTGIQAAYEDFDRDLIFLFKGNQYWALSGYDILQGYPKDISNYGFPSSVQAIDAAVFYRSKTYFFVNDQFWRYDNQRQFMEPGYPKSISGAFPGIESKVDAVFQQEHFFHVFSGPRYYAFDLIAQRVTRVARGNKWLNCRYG
The data set is described as follows: MMP inhibition assay (Ki). It counts as biochemical. The protocol:
as §1

For another data set, the target named is T5, hMMP-10 (Homo sapiens, UniProt P09238).
T5 construct: purchased R&D Systems (Minneapolis, MN)
T5 sequence (P09238 99-476): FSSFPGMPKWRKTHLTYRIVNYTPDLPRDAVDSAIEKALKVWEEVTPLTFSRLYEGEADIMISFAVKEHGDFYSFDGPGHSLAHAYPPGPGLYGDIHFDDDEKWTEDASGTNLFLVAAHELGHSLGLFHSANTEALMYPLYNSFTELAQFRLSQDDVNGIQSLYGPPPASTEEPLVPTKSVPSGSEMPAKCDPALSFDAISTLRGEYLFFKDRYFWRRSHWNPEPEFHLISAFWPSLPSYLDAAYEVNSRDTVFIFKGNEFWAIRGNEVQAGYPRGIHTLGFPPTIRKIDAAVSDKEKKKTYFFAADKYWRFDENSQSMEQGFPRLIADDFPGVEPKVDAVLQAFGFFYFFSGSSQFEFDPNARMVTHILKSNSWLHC
Briefly: MMP inhibition assay (Ki). It counts as biochemical. The method, then:
as §1

For another data set, the target named is T6, hMMP-14 (Homo sapiens, UniProt P50281).
T6 construct: purchased R&D Systems (Minneapolis, MN)
Briefly: MMP inhibition assay (Ki). It is filed as biochemical. The protocol: as §1

For the next data set, the target named is T7, hMMP-9 (Homo sapiens, UniProt P14780).
T7 construct: made in house
T7 sequence (P14780 94-707): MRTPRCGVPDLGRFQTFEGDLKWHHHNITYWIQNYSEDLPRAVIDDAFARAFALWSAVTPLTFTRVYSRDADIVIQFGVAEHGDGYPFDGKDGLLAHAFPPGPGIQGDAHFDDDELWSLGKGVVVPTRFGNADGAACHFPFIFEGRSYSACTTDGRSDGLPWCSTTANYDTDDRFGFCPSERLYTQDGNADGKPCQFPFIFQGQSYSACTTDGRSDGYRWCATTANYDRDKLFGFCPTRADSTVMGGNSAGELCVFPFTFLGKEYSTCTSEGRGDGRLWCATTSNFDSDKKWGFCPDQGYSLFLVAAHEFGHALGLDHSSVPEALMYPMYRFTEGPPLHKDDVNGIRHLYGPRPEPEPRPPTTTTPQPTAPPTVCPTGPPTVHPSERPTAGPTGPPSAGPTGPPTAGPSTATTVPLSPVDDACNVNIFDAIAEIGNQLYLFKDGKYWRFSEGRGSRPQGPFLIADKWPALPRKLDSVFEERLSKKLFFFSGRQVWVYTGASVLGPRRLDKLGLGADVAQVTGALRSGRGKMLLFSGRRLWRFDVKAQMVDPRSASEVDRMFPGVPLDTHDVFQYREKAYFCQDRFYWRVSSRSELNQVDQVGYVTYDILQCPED
The data set is described as follows: MMP inhibition assay (Ki). It counts as biochemical. The method, then: as §1

The nature of data set [1]: Blood levels in apoE-/- mice. It counts as in vivo. The conditions noted are these: mouse, whole blood, intravenous, 1 nmol, read-out: Blood level. The protocol:
(§2) Fluorescent probes (one nmol in 100 μL saline) were administered through a jugular vein catheter under inhaled isoflurane anesthesia. Blood samples were collected at various time points after probe administration to monitor blood clearance. Animals were sacrificed at the indicated time points and various organs were harvested. Near-infrared fluorescence reflectance imaging was conducted using an IVIS Spectrum system (Caliper Life Science, Hopkinton, MA) with appropriate excitation (Ex) and emission (Em) filter sets (Ex/Em = 675/720 nm for probe 1 and Ex/Em = 745/800 nm for probes 3 and 4). Fluorescence from 10 μL of blood was converted to % injected dose per gram (% ID/g) using a standard curve derived from serial dilutions of each probe in 10 μL of mouse blood. Tissue fluorescence was quantified as mean efficiency per pixel and was presented as an arbitrary unit (AU) relative to the signal from each probe in 10 μL of mouse blood.

The target of the next data set is MMP-12 active form (Mus musculus, UniProt P34960). The data set is described as follows: MMP-12 imaging of carotid aneurysm. It counts as in vivo. On the set-up: from tissue; host or cells: CaCl2-induced aneurysmal left carotid artery of apoE-deficient mice (in vivo imaging and cryostat sections). The note with it: high fat-fed apoE-/- mice, tissues harvested at 60 minutes after intravenous administration. The method, then:
Carotid aneurysm model: Arterial aneurysm was induced over a 4-week period by exposing the left common carotid artery of apolipoprotein E–deficient (apoE^−/−, n = 7) mice (Jackson Laboratory) to calcium chloride, as described. The opposite carotid artery was exposed to normal saline and served as control for imaging studies. Tissues from a previous study (n = 3)[18] supplemented histologic evaluations.
as §2

In the next data set the target is T8, ADAMTS-5 (Homo sapiens, UniProt Q9UNA0).
T8 sequence (Q9UNA0 262-930): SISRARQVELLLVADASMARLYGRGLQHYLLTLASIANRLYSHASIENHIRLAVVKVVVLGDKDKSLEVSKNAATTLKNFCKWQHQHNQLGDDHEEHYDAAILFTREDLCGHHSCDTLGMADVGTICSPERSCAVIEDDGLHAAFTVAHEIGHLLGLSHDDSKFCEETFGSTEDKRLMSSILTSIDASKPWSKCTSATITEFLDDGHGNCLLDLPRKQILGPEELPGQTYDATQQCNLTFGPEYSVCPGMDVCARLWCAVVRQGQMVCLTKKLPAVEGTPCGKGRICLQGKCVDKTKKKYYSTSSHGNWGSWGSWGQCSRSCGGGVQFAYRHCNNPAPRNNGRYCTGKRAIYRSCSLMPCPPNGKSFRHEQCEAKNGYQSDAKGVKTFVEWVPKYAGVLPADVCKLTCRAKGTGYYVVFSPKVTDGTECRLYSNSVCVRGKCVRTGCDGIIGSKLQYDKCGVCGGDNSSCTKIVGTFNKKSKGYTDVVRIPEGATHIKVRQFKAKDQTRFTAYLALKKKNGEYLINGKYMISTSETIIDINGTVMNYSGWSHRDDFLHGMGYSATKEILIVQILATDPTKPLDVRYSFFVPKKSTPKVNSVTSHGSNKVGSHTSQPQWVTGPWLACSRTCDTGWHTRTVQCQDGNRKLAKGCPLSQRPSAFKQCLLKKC
The data set is described as follows: Metalloprotease inhibition assay (Ki). It counts as biochemical.

For a further data set, the target named is TACE (Homo sapiens, UniProt P78536). The data set is described as follows: Metalloprotease inhibition assay (Ki). It is filed as biochemical.
Chain of TACE (P78536 215-824): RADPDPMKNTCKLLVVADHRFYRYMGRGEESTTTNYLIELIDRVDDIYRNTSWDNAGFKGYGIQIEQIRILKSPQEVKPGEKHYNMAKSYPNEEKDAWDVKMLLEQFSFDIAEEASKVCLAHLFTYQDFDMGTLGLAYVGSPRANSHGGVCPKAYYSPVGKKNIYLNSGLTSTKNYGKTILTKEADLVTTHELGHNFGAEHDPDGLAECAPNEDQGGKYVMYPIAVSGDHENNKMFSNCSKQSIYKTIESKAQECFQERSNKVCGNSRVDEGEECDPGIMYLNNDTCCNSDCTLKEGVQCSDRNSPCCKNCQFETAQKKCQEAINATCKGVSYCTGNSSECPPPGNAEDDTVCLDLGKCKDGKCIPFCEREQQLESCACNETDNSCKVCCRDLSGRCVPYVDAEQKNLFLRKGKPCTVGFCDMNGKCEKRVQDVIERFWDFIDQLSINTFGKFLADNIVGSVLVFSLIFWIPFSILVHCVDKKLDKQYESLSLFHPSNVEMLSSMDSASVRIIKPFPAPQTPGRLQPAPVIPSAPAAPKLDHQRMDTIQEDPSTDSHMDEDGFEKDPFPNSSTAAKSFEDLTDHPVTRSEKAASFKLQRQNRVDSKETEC

The structures appear in SMILES notation.

Chain of MMP-12 active form (P34960 110-473): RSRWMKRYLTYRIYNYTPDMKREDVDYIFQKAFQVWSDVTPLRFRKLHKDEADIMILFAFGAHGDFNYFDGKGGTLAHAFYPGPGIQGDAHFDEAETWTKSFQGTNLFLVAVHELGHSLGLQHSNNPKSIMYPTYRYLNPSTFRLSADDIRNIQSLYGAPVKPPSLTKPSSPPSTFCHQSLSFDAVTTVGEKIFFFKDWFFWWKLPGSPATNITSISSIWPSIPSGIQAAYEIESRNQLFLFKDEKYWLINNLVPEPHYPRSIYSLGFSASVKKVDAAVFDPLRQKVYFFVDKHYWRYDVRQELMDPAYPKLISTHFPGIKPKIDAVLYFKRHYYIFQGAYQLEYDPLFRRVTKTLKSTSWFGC

By Ki is commonly meant the dissociation constant of the complex between target and ligand, obtained from inhibition or displacement. As to `CC1(C)C(/C=C/C2=C(Oc3ccc(CCC(=O)NCCCOCCOCCOCCCNC(=O)[C@H](CCC(=O)[O-])NC(=O)[C@H](CCC(=O)O)NC(=O)[C@H](Cc4cc(-c5ccc(-c6cccc(Cl)c6)cc5)no4)CP(=O)(O)c4ccc(Br)cc4)cc3)C(=C/C=C3/N(CCC[N+](C)(C)C)c4ccc(S(=O)(=O)[O-])cc4C3(C)C)/CCC2)=[N+](CCC[N+](C)(C)C)c2ccc(S(=O)(=O)[O-])cc21` [probe 3], the Ki is 0.0034 ± 0.0003 µM on hMMP-12; 0.367 ± 0.061 µM at hMMP-3; 4.99 ± 0.151 µM at hMMP-7; 2.13 ± 0.172 µM on hMMP-2; 3.31 ± 0.348 µM at hMMP-8; 0.136 ± 0.022 µM on hMMP-10. The inhibition constant Ki at hMMP-14 is 1.02 ± 0.069 µM; at hMMP-9, 4.79 ± 0.535 µM; at ADAMTS-5 it was > 10 µM; on TACE it was 4.61 ± 0.653 µM. In addition, the “difference in potency towards MMP-12, factor relative to probe 1” value in the data set on hMMP-12 (relative to probe 1) stood at 4. For the same molecule, the tissue uptake at 30 min in data set [1] stood at 2.7 ± 0.1 %ID/g. Moreover, the tissue uptake at 60 min in data set [1] was found to be 2.3 ± 0.3 %ID/g. In addition, the “fluorescence signal in aneurysmal left carotid artery” value at MMP-12 active form is given as “significantly higher than the signal in the control, contralateral artery”.

As for `CC1(C)C(=CC=C2CCCC(C=CC3=[N+](CCC[N+](C)(C)C)c4ccc(S(=O)(=O)[O-])cc4C3(C)C)=C2Oc2ccc(CCC(=O)NCCCOCCOCCOCCCNC(=O)C(CCC(=O)[O-])NC(=O)C(CCC(=O)O)NC(=O)C(Cc3cc(-c4cccc(Oc5ccccc5)c4)no3)CP(=O)(O)c3ccc(Br)cc3)cc2)N(CCC[N+](C)(C)C)c2ccc(S(=O)(=O)[O-])cc21` (stereo not drawn) [probe 4], the Ki was 4.04 ± 0.67 µM at hMMP-12; > 12 µM at hMMP-3; 9.8 ± 0.32 µM at hMMP-7; > 12 µM at hMMP-2; 7.5 ± 0.73 µM on hMMP-8; 6.43 ± 1.67 µM on hMMP-10. The inhibition constant Ki on hMMP-14 was 7.86 ± 1.53 µM; on hMMP-9, 4.9 ± 1.3 µM; on ADAMTS-5, > 10 µM; at TACE it was > 25 µM. Also, the tissue uptake at 30 min in data set [1] is 2.4 ± 0.3 %ID/g. In addition, the tissue uptake at 60 min in [1] was 2 ± 0.2 %ID/g. Also, at MMP-12 active form, the “fluorescence signal in aneurysmal left carotid artery” value was “significantly lower signal”.
